Data published in EP1325735A2, “Use of L-arginine derivatives as photo-protecting agents and enhancing melanic response in cosmetic compositions” (EXSYMOL S.A.M., priority 2002, dated 2003).
Square brackets hold non-standard residues; d marks the D form. Peptide text beside a SMILES is read from it. ξ: configuration not given here. ξM = CSCCC(N)C(=O)O

How the values were obtained:
[1] = Hydroxyl radical OH• scavenging, deoxyribose protection test (Halliwell method); settings: rate constant of S on OH•; mean (± SD) of 3 independent experiments
Source text: Le test, réalisé selon la méthode décrite par B. Halliwell et coll. […] Le pouvoir protecteur est déduit de la comparaison des cinétiques de réaction, exprimées par une constante de vitesse de S sur OH• (piégeage de OH•).
Les constantes de vitesse correspondent à la valeur moyenne (± D.S.) calculée à partir de 3 expériences indépendantes

[2] = test system: co-culture in vitro de mélanocytes et de kératinocytes; experiment: In vitro melanocyte/keratinocyte co-culture model of the "mélano-épidermique" unit: melanic response after UV; format: cell-based; set-up: unit not given here; settings: for réponse mélanique: co-culture + MdC "ARG-free" irradiée par UVB: ARG-free medium (insufficient physiological arginine); for réponse mélanique: co-culture + MdC "ARG-free" irradiée par UVB / réponse mélanique: co-culture + MdC "ARG = 84mg/L" irradiée par UVB: UVB irradiated; for réponse mélanique: co-culture + MdC "ARG = 84mg/L" irradiée par UVB / réponse mélanique: co-culture + MdC "ARG = 84mg/L" sans irradiation: standard medium with supra-physiological arginine; for réponse mélanique: co-culture + MdC "ARG = 84mg/L" sans irradiation: no irradiation
Source text: Test 2 : démonstration de l'effet des dérivés d'arginine sur l'unité "mélano-épidermique" et la réponse mélanique
Nous avons mis au point un modèle expérimental reproduisant l'unité "mélano-épidermique", et qui permet de mettre en évidence les effets d'un apport exogène de dérivés d'arginine sur la réponse mélanique à la suite de rayonnements U.V. (effet direct sur les mélanocytes et indirect via la "communication cellulaire" entre kératinocytes et mélanocytes). Il s'agit d'un modèle de co-culture in vitro de mélanocytes et de kératinocytes (voir représentation schématique du modèle), possédant un milieu de culture (MdC) particulier. [drawing]
Le fond poreux de la chambre supérieure permet le passage, d'un compartiment à l'autre, des facteurs endogènes sécrétés par les cellules (NO) et la substance (S).

Row | SMILES | constante de vitesse de piégeage [1] | réponse mélanique: co-culture + MdC "ARG-free" irradiée par UVB ([2]; substance 0,12 mM) | réponse mélanique: co-culture + MdC "ARG = 84mg/L" irradiée par UVB ([2]; substance 0,12 mM) | réponse mélanique: co-culture + MdC "ARG = 84mg/L" sans irradiation ([2]; substance 0,12 mM) | réponse mélanique: co-culture + MdC "ARG-free" irradiée par UVB ([2]; substance 0,24 mM) | réponse mélanique: co-culture + MdC "ARG = 84mg/L" irradiée par UVB ([2]; substance 0,24 mM) | réponse mélanique: co-culture + MdC "ARG = 84mg/L" sans irradiation ([2]; substance 0,24 mM) | réponse mélanique: co-culture + MdC "ARG-free" irradiée par UVB ([2]; substance 0,48 mM) | réponse mélanique: co-culture + MdC "ARG = 84mg/L" irradiée par UVB ([2]; substance 0,48 mM) | réponse mélanique: co-culture + MdC "ARG = 84mg/L" sans irradiation ([2]; substance 0,48 mM)
1 | CCOC(=O)[C@@H](NC(=O)[C@H](CCCNC(=N)N)NC(C)=O)[C@@H](C)CC [NAc-L-ARG-L-ILE-OEt, N-acetyl-L-arginyl-(D ou L)-isoleucine ethyl ester] (Ac-Arg-Ile-OEt) | 6,1 (±0,4)x10^9 M^-1.S^-1 | – | – | – | – | – | – | – | – | –
2 | CCOC(=O)[C@H](CCCNC(=N)N)NC(=O)[C@H](Cc1c[nH]cn1)NC(C)=O [NAc-L-HIS-L-ARG-OEt, N-acetyl-(D ou L)-histidyl-L-arginine ethyl ester] (Ac-His-Arg-OEt) | 9,0 (±0,2)x10^9 M^-1.S^-1 | 38,8 | 41,6 | 22,7 | 41,0 | 36,2 | 22,5 | 42,5 | 40,7 | 18,8
3 | CCOC(=O)[C@H](CCCNC(=N)N)NC(C)=O [NAc-L-ARG-OEt, N-acetyl-L-arginine ethyl ester] | 5,2 (±0,2)x10^9 M^-1.S^-1 | 30,7 | 39,5 | 23,1 | 37,5 | 42,6 | 20,9 | 43,8 | 38,4 | 24,4
4 | N[C@@H](Cc1c[nH]cn1)C(=O)O [L-histidine, reference compound] | 2,5 (±0,2)x10^9 M^-1.S^-1 | – | – | – | – | – | – | – | – | –
5 | CCOC(=O)[C@H](CCCNC(=N)N)NC(=O)[C@H](Cc1ccc(O)cc1)NC(C)=O [NAc-L-TYR-L-ARG-OEt, N-acetyl-L-tyrosyl-L-arginine ethyl ester] | 8,1 (±0,3)x10^9 M^-1.S^-1 | – | – | – | – | – | – | – | – | –
6 | N=C(N)NCCC[C@H](N)C(=O)O [L-arginine] | 1,5 (±0,2)x10^9 M^-1.S^-1 | – | – | – | – | – | – | – | – | –
7 | CCOC(=O)[C@H](CCCNC(=N)N)NC(=O)C(CCSC)NC(C)=O (stereo partly drawn) [NAc-(D,L)-MET-L-ARG-OEt, N-acetyl-(D ou L)methionyl-L-arginine ethyl ester] (Ac-[ξM]-Arg-OEt) | 0,7 (±0,2)x10^10 M^-1.S^-1 | – | – | – | – | – | – | – | – | –
